Reference: ChEMBL document CHEMBL1201862, “PubChem BioAssay data set” (2004)
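All cell lines were grown in 96-well plates and treated with compound for 48 hours. Abbreviation: GI50, concentration required for 50% inhibition of growth.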 The source made the active and inactive calls. Cut-off read from the data, not from the text of the source: active = GI50 up to about 1.1 µM and inactive = higher.

Tests used:
Assay in all cases: NCI tumour cell line growth inhibition, 48 h
[1] = tested on: SF-295
[2] = tested on: HT-29
[3] = tested on: PC-3
[4] = tested on: DU-145
[5] = tested on: Hs-578T
[6] = tested on: HL-60
[7] = tested on: HOP-62
[8] = tested on: NCI-H226
[9] = tested on: HCT-116
[10] = tested on: SF-539
[11] = tested on: SN12C
[12] = tested on: MOLT-4
[13] = tested on: M19-MEL
[14] = tested on: ACHN
[15] = tested on: OVCAR-8
[16] = tested on: MCF7
[17] = tested on: EKVX
[18] = tested on: U-251
[19] = tested on: SK-MEL-2
[20] = tested on: NCI-H460

Structure (SMILES) | GI50 [1] | GI50 [2] | GI50 [3] | GI50 [4] | GI50 [5] | GI50 [6] | GI50 [7] | GI50 [8] | GI50 [9] | GI50 [10] | GI50 [11] | GI50 [12] | GI50 [13] | GI50 [14] | GI50 [15] | GI50 [16] | GI50 [17] | GI50 [18] | GI50 [19] | GI50 [20]
Cc1cc(NC(=O)NC(=O)c2ccccc2NC(=O)CN(C)C)ccc1Oc1ncc(Br)cn1 | 0.748 µM (active) | 1.61 µM (inactive) | 1.08 µM (active) | 2.41 µM (inactive) | 1.6 µM (inactive) | 0.658 µM (active) | 2.76 µM (inactive) | 6.76 µM (inactive) | 1.85 µM (inactive) | 1.56 µM (inactive) | 17.3 µM (inactive) | 4.95 µM (inactive) | 36.8 µM (inactive) | 18 µM (inactive) | 6.84 µM (inactive) | 0.809 µM (active) | 12.9 µM (inactive) | 3.92 µM (inactive) | 10.4 µM (inactive) | 0.78 µM (active)
O=C(c1nc2ccccc2nc1O)C(O)c1ccco1 (stereo unspecified) | > 100 µM (inactive) | > 100 µM (inactive) | – | – | – | > 100 µM (inactive) | > 100 µM (inactive) | > 100 µM (inactive) | > 100 µM (inactive) | > 100 µM (inactive) | > 100 µM (inactive) | > 100 µM (inactive) | > 100 µM (inactive) | 54.5 µM (inactive) | > 100 µM (inactive) | – | > 100 µM (inactive) | > 100 µM (inactive) | > 100 µM (inactive) | > 100 µM (inactive)
O=C(NO)C(=O)Nc1cc(Cl)ccc1Cl | > 100 µM (inactive) | > 100 µM (inactive) | – | – | – | > 100 µM (inactive) | > 100 µM (inactive) | > 100 µM (inactive) | > 100 µM (inactive) | > 100 µM (inactive) | > 100 µM (inactive) | 83.6 µM (inactive) | > 100 µM (inactive) | > 100 µM (inactive) | > 100 µM (inactive) | – | > 100 µM (inactive) | > 100 µM (inactive) | > 100 µM (inactive) | > 100 µM (inactive)
Cc1nc(-n2nc(-c3ccccc3)cc2-c2ccccc2)sc1C(=O)/C=C/c1ccc(/C=C/C(=O)c2sc(-n3nc(-c4ccccc4)cc3-c3ccccc3)nc2C)cc1 | 23.9 µM (inactive) | 21.6 µM (inactive) | – | – | – | 32.9 µM (inactive) | 23.6 µM (inactive) | 26.8 µM (inactive) | 19.8 µM (inactive) | 19.2 µM (inactive) | 19.6 µM (inactive) | 25.1 µM (inactive) | 25.9 µM (inactive) | 19.9 µM (inactive) | 32.8 µM (inactive) | – | 46.5 µM (inactive) | 19 µM (inactive) | 22.1 µM (inactive) | 29 µM (inactive)
O=c1c(Cl)c(Cl)cnn1CCCl | 16 µM (inactive) | 2.81 µM (inactive) | – | 18.7 µM (inactive) | 3.25 µM (inactive) | 2.19 µM (inactive) | 17.3 µM (inactive) | 23.2 µM (inactive) | 5.48 µM (inactive) | 14.1 µM (inactive) | 12.9 µM (inactive) | 2.54 µM (inactive) | 2.67 µM (inactive) | 0.904 µM (active) | 3.44 µM (inactive) | – | 6.73 µM (inactive) | 5.9 µM (inactive) | – | 8.13 µM (inactive)
COc1ccc(COC2CC(OC)OC(C)C2OC(=O)c2ccccc2)cc1 (stereo unspecified) | 38.5 µM (inactive) | 16.6 µM (inactive) | – | – | – | 20.7 µM (inactive) | > 73.5 µM (inactive) | 21.7 µM (inactive) | 28.6 µM (inactive) | 54.1 µM (inactive) | 57.4 µM (inactive) | 15.6 µM (inactive) | 34.5 µM (inactive) | 24.3 µM (inactive) | 31.6 µM (inactive) | – | 70.1 µM (inactive) | 35.5 µM (inactive) | 54 µM (inactive) | 36.7 µM (inactive)
C[C@@H]1O[C@@H](O[C@H]2CC[C@]3(C=O)[C@H]4CC[C@]5(C)[C@@H](c6ccc(=O)oc6)CC[C@]5(O)[C@@H]4CC[C@]3(O)C2)[C@H](O)[C@H](O)[C@H]1O[C@@H]1O[C@H](CO)[C@@H](O)[C@H](O)[C@H]1O [HELLEBRIN] | 0.0112 µM (active) | 0.0212 µM (active) | 0.00938 µM (active) | 0.00265 µM (active) | 0.00653 µM (active) | 0.00615 µM (active) | 0.0375 µM (active) | 0.0231 µM (active) | 0.00805 µM (active) | 0.00811 µM (active) | 0.00506 µM (active) | 0.00302 µM (active) | 0.0375 µM (active) | 0.00423 µM (active) | 0.0126 µM (active) | 0.0375 µM (active) | 0.0075 µM (active) | 0.0223 µM (active) | 0.0199 µM (active) | 0.00771 µM (active)
